In ChEMBL document CHEMBL1201862, “PubChem BioAssay data set” (2004) one finds EC50, IC50 and CC50 data, which are given here for 5 compounds.

Test [1] has as its target T1, Short transient receptor potential channel 4 (Mus musculus, UniProt Q9QUQ5).
T1 sequence (Q9QUQ5 whole entry): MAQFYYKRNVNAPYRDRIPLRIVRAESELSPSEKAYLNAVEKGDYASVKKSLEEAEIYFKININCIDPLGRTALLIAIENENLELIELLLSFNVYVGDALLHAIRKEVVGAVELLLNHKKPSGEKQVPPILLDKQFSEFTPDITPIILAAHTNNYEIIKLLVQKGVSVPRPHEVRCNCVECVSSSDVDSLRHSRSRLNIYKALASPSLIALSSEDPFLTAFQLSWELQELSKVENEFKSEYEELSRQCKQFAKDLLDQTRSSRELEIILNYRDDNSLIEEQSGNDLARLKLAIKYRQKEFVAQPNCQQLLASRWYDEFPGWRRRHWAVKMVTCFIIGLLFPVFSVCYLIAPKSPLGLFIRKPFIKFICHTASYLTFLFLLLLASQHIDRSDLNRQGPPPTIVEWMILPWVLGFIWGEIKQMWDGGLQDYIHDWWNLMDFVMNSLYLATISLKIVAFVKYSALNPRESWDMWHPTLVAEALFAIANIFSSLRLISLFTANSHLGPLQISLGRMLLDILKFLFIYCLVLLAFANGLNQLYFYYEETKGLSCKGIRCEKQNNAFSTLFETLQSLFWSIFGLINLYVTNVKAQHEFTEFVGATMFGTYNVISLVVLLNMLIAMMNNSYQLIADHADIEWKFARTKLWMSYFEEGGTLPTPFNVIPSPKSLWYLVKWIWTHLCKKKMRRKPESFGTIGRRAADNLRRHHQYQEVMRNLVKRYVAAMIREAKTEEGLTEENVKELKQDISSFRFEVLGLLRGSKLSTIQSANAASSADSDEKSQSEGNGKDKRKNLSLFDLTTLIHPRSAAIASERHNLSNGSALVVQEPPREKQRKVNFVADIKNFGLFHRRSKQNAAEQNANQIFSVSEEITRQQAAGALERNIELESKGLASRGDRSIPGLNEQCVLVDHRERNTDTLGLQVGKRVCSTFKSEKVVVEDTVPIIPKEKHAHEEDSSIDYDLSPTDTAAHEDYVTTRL
Put plainly: potentiation of DAMGO-evoked TRPC4 calcium signal – cell-based, HEK293 TRPC4/mu-opioid, Fluo-4 calcium, EC20 DAMGO, dose response (AID 434941).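 Further: HEK293 cells coexpressing TRPC4 and mu opioid receptor stimulated by EC20 DAMGO.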 In kind it is functional.

Test [2] deals with G-protein coupled receptor 55 (Homo sapiens, UniProt Q9Y2T6). Put plainly: selective activators of receptor GPR55 – imaging, U2OS cells, beta-arrestin-GFP redistribution, primary screen (AID 1961). In kind it is functional.
The target in test [3] is T2, Mannose-6-phosphate isomerase (Homo sapiens, UniProt P34949).
T2 sequence (P34949 whole entry): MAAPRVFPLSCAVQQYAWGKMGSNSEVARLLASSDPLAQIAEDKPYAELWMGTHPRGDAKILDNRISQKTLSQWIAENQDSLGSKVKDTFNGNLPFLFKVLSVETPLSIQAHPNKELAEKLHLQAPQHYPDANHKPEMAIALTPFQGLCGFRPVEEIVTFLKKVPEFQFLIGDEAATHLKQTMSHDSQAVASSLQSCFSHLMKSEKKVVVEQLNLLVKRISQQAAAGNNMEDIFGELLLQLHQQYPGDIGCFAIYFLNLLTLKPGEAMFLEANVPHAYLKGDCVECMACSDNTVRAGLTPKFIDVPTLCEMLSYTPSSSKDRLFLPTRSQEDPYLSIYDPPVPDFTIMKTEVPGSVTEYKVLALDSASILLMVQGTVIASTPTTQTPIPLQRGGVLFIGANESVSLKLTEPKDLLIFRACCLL
Put plainly: phosphomannose isomerase inhibition – biochemical, fluorescence intensity, confirmation (AID 1535).

In test [4] the target is T2, Mannose-6-phosphate isomerase. Put plainly: MPI inhibition at elevated mannose 6-phosphate – biochemical, fluorescence intensity, high mannose 6-phosphate, primary screen (AID 1220).
For test [5], the target named is Phosphomannomutase 2 (Homo sapiens, UniProt O15305). Put plainly: Counter screen SAR assay for PMM2 inhibitors via a fluorescence intensity assay. [Related pubchem assays (depositor defined):AID1545, AID1574]. For orientation: The purpose of a counterscreen is to sort out artefacts and off-target activity.
Chain of Phosphomannomutase 2 (O15305 whole entry): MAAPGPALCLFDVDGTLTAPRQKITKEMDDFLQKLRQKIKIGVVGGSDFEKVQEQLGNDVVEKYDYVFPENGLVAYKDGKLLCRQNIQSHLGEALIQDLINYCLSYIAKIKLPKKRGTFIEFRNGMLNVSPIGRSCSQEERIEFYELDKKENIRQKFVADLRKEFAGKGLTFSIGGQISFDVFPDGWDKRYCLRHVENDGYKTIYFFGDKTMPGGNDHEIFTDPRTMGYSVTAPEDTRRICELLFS
In test [6] the target is Glucose-6-phosphate 1-dehydrogenase (Homo sapiens, UniProt P11413). Put plainly: inhibition of Homo sapiens G6PD, dose series – biochemical, fluorescence, selectivity assay for P. falciparum G6PD inhibitor project, dose response (AID 504792). In kind it is functional.
Chain of Glucose-6-phosphate 1-dehydrogenase (P11413 whole entry): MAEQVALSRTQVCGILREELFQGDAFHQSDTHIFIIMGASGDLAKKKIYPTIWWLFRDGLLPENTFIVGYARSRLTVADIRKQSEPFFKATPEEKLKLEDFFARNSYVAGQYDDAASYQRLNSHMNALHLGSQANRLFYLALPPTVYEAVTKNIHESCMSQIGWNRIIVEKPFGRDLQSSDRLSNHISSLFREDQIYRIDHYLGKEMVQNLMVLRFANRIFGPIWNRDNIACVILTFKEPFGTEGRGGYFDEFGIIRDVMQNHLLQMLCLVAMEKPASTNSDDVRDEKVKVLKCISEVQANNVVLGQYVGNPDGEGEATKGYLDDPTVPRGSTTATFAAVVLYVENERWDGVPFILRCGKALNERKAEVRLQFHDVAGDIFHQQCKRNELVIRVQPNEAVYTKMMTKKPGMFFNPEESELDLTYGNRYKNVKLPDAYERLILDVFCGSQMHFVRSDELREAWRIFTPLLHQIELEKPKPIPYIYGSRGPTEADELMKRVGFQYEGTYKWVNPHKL
In test [7] the test system is Vero. Put plainly: cells. As to conditions: Chlorocebus sabaeus. In kind it is functional.
Test [8] deals with Large T antigen (Simian virus 40, UniProt P03070). In kind it is functional, Betapolyomavirus macacae.
Chain of Large T antigen (P03070 whole entry): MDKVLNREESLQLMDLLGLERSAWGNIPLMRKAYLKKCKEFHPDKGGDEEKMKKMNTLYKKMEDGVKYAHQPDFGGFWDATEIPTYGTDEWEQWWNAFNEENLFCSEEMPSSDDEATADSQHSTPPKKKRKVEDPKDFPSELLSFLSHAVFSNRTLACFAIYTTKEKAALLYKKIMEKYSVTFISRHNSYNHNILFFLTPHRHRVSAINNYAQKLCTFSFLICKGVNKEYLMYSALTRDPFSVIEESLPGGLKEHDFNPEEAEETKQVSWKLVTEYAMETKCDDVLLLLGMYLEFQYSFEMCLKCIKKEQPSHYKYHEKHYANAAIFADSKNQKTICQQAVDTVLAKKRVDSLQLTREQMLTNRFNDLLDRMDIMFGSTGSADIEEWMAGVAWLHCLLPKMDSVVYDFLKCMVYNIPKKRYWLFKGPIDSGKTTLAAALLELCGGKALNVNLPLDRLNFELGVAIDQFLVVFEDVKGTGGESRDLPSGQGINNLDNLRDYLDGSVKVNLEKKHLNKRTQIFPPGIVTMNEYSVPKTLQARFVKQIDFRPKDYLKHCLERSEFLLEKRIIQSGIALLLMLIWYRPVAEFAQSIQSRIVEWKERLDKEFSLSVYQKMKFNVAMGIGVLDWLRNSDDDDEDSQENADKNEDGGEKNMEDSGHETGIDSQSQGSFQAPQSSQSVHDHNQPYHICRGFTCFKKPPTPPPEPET
Test [9] addresses Eukaryotic translation initiation factor 4E (Mus musculus, UniProt P63073). Put plainly: blockers of eIF4G binding by eIF4E – biochemical, TR-FRET, dose response (AID 855).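 Further: potency for disrupting eIF4E binding to eIF4GI seen as loss of FRET.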 In kind it is functional. (TR-FRET usually uses a lanthanide donor and a delayed reading to cut background.)
Test [10] concerns HEK293. Put plainly: cells. Conditions: Homo sapiens. In kind it is functional, cell-based.
In test [11] the test system is HEK293. Put plainly: NOD2 signaling inhibitors in MDP-stimulated cells, cell-based, uHTS, luminescence (AID 2001). In kind it is functional. Conditions: Homo sapiens.
The target of test [12] is Tumor necrosis factor (Homo sapiens, UniProt P01375). Put plainly: analog potency on TNFa NF-kB signaling – cell-based, revised, SAR follow-up (AID 2337). In kind it is functional.
Chain of Tumor necrosis factor (P01375 whole entry, the tested form may be a part): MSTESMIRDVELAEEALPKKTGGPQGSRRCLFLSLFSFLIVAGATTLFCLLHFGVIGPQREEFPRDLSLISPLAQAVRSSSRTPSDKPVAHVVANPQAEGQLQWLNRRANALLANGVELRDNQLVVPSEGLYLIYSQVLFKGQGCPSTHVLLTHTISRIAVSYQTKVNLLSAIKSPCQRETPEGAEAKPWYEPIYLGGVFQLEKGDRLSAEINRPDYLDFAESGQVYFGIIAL
The target in test [13] is T3, Nucleotide-binding oligomerization domain-containing protein 2 (Homo sapiens, UniProt Q9HC29). Put plainly: PubChem AID 2334. In kind it is functional.
T3 sequence (Q9HC29 whole entry, the tested form may be a part): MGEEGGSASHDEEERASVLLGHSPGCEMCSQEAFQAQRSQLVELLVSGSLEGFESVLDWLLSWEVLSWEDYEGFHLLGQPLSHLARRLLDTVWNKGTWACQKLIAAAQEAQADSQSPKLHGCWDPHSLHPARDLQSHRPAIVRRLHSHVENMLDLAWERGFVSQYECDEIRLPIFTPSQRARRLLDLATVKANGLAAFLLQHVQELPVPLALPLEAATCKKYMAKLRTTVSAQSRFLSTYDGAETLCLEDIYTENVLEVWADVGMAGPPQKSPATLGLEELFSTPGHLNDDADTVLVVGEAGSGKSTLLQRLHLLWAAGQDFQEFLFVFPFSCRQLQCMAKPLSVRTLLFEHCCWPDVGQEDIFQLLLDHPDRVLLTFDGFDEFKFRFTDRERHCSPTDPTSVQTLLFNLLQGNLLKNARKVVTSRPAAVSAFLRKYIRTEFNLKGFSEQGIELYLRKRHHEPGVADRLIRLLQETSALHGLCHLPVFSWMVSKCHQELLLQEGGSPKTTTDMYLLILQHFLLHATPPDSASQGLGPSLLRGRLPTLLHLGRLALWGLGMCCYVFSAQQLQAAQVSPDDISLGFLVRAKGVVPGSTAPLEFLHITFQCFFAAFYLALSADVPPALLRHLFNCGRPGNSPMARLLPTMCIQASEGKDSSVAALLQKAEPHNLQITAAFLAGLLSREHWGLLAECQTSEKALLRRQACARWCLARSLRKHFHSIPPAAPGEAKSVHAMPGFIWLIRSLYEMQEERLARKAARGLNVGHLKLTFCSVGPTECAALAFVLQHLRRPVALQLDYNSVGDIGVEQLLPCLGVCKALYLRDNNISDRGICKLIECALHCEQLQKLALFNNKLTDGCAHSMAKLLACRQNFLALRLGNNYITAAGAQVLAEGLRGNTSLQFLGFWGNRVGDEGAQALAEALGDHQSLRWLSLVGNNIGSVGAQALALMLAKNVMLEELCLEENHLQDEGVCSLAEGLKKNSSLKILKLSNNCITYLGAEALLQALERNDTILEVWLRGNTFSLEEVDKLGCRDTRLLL
For test [14], the target named is Nucleotide-binding oligomerization domain-containing protein 1 (Homo sapiens, UniProt Q9Y239). Put plainly: blockers of NOD1 pathway activity – revised, SAR follow-up (AID 2333). In kind it is functional.
Chain of Nucleotide-binding oligomerization domain-containing protein 1 (Q9Y239 whole entry, the tested form may be a part): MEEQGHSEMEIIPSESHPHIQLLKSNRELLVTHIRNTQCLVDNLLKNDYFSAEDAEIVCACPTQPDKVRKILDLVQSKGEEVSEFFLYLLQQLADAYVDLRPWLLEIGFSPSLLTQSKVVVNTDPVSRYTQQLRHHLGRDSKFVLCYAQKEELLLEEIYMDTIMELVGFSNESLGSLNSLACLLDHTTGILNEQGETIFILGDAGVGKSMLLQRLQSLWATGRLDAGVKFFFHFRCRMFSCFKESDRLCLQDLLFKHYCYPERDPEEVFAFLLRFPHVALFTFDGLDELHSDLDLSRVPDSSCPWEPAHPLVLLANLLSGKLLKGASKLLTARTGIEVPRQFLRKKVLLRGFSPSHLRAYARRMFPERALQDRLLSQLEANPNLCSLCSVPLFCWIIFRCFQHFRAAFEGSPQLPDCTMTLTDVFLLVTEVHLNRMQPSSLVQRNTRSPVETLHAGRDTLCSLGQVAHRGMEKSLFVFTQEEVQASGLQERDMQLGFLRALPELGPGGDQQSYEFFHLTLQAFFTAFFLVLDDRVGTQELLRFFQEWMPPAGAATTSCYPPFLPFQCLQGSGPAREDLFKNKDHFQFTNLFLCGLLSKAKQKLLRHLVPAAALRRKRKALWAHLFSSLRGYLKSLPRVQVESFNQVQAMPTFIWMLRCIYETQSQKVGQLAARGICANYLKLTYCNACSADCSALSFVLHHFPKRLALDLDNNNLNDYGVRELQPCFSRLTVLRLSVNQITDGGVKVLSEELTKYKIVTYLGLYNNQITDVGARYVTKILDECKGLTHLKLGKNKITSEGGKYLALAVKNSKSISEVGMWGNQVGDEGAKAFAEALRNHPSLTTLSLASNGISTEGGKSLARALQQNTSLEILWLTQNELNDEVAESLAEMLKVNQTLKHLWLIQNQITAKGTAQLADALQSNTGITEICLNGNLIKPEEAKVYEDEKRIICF
The test system of test [15] is HEK293. Put plainly: cells. In kind it is functional, cell-based. Conditions: Homo sapiens. This is another data set of the same source.
The target in test [16] is T3, Nucleotide-binding oligomerization domain-containing protein 2. Put plainly: inhibition of NOD2-driven NF-kB reporter – cell-based, luminescence, uHTS, HEK293 (AID 1566). In kind it is functional.
The target in test [17] is T4, Calpain-2 catalytic subunit (Sus scrofa, UniProt P43367).
T4 sequence (P43367 whole entry): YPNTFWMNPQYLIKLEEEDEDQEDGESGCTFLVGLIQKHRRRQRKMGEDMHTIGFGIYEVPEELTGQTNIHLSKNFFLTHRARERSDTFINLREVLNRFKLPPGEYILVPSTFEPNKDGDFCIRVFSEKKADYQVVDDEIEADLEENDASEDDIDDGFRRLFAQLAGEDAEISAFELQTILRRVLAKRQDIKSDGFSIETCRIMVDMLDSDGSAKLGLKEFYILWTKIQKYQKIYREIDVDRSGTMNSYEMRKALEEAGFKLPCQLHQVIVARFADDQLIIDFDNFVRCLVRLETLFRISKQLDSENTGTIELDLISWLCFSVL
Put plainly: m-calpain protease blockers, concentration series – biochemical, fluorogenic peptide substrate, dose response (AID 1420). In kind it is functional.

The subject of test [18] is HEK293. Put plainly: inhibition of NOD1-driven NF-kB reporter – cell-based, luminescence, uHTS, primary screen (AID 1578). In kind it is functional. Conditions: Homo sapiens.
In test [19] the test system is HEK293. Put plainly: cells. As to conditions: Homo sapiens.
Test [20] concerns HEK293. Put plainly: cells. In kind it is functional, cell-based. As to conditions: Homo sapiens. The source holds these as a separate data set.
Test [21] has as its target T5, Eukaryotic translation initiation factor 4H (Homo sapiens, UniProt Q15056). Put plainly: eIF4H binding inhibition – biochemical, uHTS, fluorescence polarization, translation initiation inhibitor project, primary screen (AID 2012). For orientation: Fluorescence polarisation rises when a labelled molecule tumbles more slowly, as on binding a larger partner.
Test [22] addresses T6, Polyadenylate-binding protein 1 (Homo sapiens, UniProt P11940). Put plainly: PABP inhibition in translation initiation, SAR follow-up (AID 435018). In kind it is functional.
Test [23] addresses T6, Polyadenylate-binding protein 1. Put plainly: blockers of PABP interaction with poly(A) – biochemical, fluorescence polarization, […] (AID 2014).
The target of test [24] is T5, Eukaryotic translation initiation factor 4H. Put plainly: inhibitors of translation initiation factor eIF4H – SAR follow-up (AID 435011). In kind it is functional.

In general, EC50 refers to the concentration needed to bring the measured effect to its halfway point. By IC50 is commonly meant the point on the concentration scale where inhibition reaches its midpoint. Usually CC50 stands for the concentration giving 50% cytotoxicity.

Activity calls are given as the source filed them. For most assays here, no stated cut-off is given here; in the data, actives have a measured IC50 and inactives only a lower limit. Bounds are passed on as bounds.

T6 sequence (P11940 whole entry): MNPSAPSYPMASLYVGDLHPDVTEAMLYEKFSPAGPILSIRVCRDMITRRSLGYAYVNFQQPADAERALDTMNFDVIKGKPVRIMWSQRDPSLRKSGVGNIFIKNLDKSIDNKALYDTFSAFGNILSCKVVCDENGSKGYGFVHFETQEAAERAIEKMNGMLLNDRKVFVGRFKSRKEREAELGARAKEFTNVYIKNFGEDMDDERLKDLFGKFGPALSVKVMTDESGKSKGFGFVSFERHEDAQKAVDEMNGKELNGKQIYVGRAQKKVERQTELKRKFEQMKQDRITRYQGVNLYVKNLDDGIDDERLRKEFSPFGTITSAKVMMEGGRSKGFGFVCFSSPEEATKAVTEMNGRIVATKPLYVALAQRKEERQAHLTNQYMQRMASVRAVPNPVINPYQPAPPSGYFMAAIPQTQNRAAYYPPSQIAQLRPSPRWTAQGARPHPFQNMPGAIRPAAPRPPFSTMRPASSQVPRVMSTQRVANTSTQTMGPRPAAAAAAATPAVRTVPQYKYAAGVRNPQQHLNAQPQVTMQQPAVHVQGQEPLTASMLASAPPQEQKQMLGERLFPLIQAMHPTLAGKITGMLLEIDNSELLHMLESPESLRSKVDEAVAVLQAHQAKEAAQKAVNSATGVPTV
Chain of Eukaryotic translation initiation factor 4E (P63073 whole entry): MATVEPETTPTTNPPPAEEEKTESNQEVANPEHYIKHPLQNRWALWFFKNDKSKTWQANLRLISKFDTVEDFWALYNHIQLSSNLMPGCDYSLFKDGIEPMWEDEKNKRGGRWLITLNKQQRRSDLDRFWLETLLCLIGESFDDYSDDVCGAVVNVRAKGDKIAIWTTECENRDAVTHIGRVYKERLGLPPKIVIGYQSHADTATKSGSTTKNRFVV

As for `CCSC1=N/C(=C\c2ccc(OC)cc2)C(=O)N1`, the 50% effective concentration (EC50) in [1] was 3.35 µM (active).
On to `Cc1c(C(=O)N(C)C2CCCCC2)sc2ncnc(N3CCN(c4ccccc4)CC3)c12`, for which the EC50 in test [2] is 5.84 µM (active).
For `O=c1c2ccccc2sn1-c1nccs1`, the IC50 in test [3] was 2.65 µM (active); in test [4] it was 42.5 µM (active); in test [5], > 100 µM (inactive); in [6], 11.3 µM (active); in [8] it was 12.9 µM (active); in [9], 13.5 µM (active). Besides, the 50% cytotoxic concentration (CC50) in test [7] is > 25 µM (active).
With `CCc1cc2c3c(c1)C(C)CC(C)(C)N3C(=O)/C2=C1\SC(=O)NC1=O` (centres undefined), the IC50 in test [10] was > 20 µM (inactive); in test [11] it was 10.8 µM (inactive); in test [12], 8.16 µM (active); in test [13], 5.9 µM (active); in test [14], 5.04 µM (active); in test [15], 16.4 µM (active). The results for the IC50 in test [17], in [19] and in test [20] were 14.3 µM (not active), > 20 µM (inactive) and > 20 µM (inactive), respectively. Also, the figures for the EC50 in [16] and in test [18] were 10.4 µM (active) and 7.46 µM (active), respectively.
`O=C(Nc1cccc2ncccc12)c1ccc(Cl)cc1`: the IC50 is > 100 µM (inactive) in test [21], 2.79 µM (active) in test [22], 9.09 µM (active) in test [23] and 6.11 µM (active) in test [24].
